Data taken from ChEMBL document CHEMBL4038275, “t-Butyl pyridine and phenyl C-region analogues of 2-(3-fluoro-4-methylsulfonylaminophenyl)propanamides as potent TRPV1 antagonists” (Bioorg Med Chem, 2017).
pKi: −log10 of the molar value. Calls of active or inactive are those of the source. No cut-off for these calls is given here.

How the values were obtained:
[1] = target: Transient receptor potential cation channel subfamily V member 1 (Homo sapiens, UniProt Q8NER1); test: Antagonist activity at human TRPV1 expressed in CHOK1 cells assessed as inhibition of capsaicin induced calcium influx pretreated for 6 mins followed by capsaicin addition by Fluo-4/Pluronic F127 probe based FLIPR method; format: cell-based
Mus musculus [2] = test: Analgesic activity in po dosed Bennett mouse model of neuropathic pain assessed as reduction in chronic constriction injury-induced cold allodynia; format: functional, organism-based
Mus musculus [3] = test: Analgesic activity in Bennett mouse model of neuropathic pain assessed as reduction in chronic constriction injury-induced cold allodynia at 10 mg/kg, po relative to control; format: functional
Mus musculus [4] = test: Analgesic activity in Bennett mouse model of neuropathic pain assessed as reduction in chronic constriction injury-induced cold allodynia at 3 mg/kg, po relative to control; format: functional
Mus musculus [5] = test: Analgesic activity in mouse assessed as reduction in capsaicin induced hypothermia at 10 mg/kg, po relative to control; format: functional
Mus musculus [6] = test: Analgesic activity in mouse assessed as reduction in capsaicin induced hypothermia at 3 mg/kg, po relative to control; format: functional

Transient receptor potential cation channel subfamily V member 1, sequence (Q8NER1 whole entry): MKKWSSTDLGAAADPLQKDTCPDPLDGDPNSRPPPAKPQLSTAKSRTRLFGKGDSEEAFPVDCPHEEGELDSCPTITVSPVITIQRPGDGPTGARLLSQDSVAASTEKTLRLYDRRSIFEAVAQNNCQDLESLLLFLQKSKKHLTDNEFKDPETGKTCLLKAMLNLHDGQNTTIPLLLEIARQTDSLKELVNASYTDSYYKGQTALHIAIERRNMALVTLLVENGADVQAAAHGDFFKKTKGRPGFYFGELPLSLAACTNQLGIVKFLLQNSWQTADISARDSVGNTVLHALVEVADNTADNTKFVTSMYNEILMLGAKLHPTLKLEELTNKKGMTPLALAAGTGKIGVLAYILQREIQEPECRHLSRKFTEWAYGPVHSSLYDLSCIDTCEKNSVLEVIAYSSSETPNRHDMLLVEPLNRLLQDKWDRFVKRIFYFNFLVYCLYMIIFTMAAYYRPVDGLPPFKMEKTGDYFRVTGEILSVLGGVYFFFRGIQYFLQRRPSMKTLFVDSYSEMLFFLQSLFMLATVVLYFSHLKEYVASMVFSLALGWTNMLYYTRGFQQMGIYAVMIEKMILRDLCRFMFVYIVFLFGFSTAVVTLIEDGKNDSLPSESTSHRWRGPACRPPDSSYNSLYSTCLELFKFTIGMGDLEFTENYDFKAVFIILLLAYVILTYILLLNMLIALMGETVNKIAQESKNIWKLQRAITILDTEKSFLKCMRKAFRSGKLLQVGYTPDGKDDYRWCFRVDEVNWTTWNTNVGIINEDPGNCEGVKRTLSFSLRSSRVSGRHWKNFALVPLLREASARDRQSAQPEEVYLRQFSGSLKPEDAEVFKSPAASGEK

SMILES	pKi [1]	other results
CCCCN(C)c1cc(C(C)(C)C)ccc1CNC(=O)C(C)c1ccc(NS(C)(=O)=O)c(F)c1 (stereo not drawn)	9.00	–
CC(C(=O)NCc1ccc(C(C)(C)C)nc1C1CCCCC1)c1ccc(NS(C)(=O)=O)c(F)c1 (stereo not drawn)	8.51	–
CCCCCSc1nc(C(C)(C)C)ccc1CNC(=O)C(C)c1ccc(NS(C)(=O)=O)c(F)c1 (stereo not drawn)	8.51	–
CC(C(=O)NCc1ccc(C(C)(C)C)nc1SCCCN1CCOCC1)c1ccc(NS(C)(=O)=O)c(F)c1 (stereo not drawn)	6.95	–
CC(C(=O)NCc1ccc(C(C)(C)C)nc1SCc1ccccc1)c1ccc(NS(C)(=O)=O)c(F)c1 (stereo not drawn)	8.40	–
CC(C(=O)NCc1ccc(C(C)(C)C)nc1N1CCC(Cc2ccccc2)CC1)c1ccc(NS(C)(=O)=O)c(F)c1 (stereo not drawn)	9.52	–
CC(C(=O)NCc1ccc(C(C)(C)C)nc1SCCCN1CCCC1)c1ccc(NS(C)(=O)=O)c(F)c1 (stereo not drawn)	7.77	–
CC(C(=O)NCc1ccc(C(C)(C)C)cc1OCc1ccc(F)cc1)c1ccc(NS(C)(=O)=O)c(F)c1 (stereo not drawn)	8.42	–
CC(C(=O)NCc1ccc(C(C)(C)C)cc1N1CCCC1)c1ccc(NS(C)(=O)=O)c(F)c1 (stereo not drawn)	8.09	–
CC(C(=O)NCc1ccc(C(C)(C)C)cc1OCc1ccccc1)c1ccc(NS(C)(=O)=O)c(F)c1 (stereo not drawn)	8.54	–
CC(C(=O)NCc1ccc(C(C)(C)C)nc1SCc1ccc(Cl)cc1)c1ccc(NS(C)(=O)=O)c(F)c1 (stereo not drawn)	8.47	–
CC(C(=O)NCc1ccc(C(C)(C)C)nc1SC1CCCC1)c1ccc(NS(C)(=O)=O)c(F)c1 (stereo not drawn)	8.60	–
C[C@@H](C(=O)NCc1ccc(C(C)(C)C)nc1SC1CCCCC1)c1ccc(NS(C)(=O)=O)c(F)c1	7.44	–
CC(C(=O)NCc1ccc(C(C)(C)C)cc1C1CCCCC1)c1ccc(NS(C)(=O)=O)c(F)c1 (stereo not drawn)	8.01	–
CC(C(=O)NCc1ccc(C(C)(C)C)nc1SCCCN(C)C)c1ccc(NS(C)(=O)=O)c(F)c1 (stereo not drawn)	7.29	–
CC(C)CCOc1cc(C(C)(C)C)ccc1CNC(=O)C(C)c1ccc(NS(C)(=O)=O)c(F)c1 (stereo not drawn)	9.22	–
CC(C(=O)NCc1ccc(C(C)(C)C)cc1SC1CCCCC1)c1ccc(NS(C)(=O)=O)c(F)c1 (stereo not drawn)	8.13	–
CC(C(=O)NCc1ccc(C(C)(C)C)nc1OCc1ccc(F)cc1)c1ccc(NS(C)(=O)=O)c(F)c1 (stereo not drawn)	9.10	–
CC(C)CCSc1nc(C(C)(C)C)ccc1CNC(=O)C(C)c1ccc(NS(C)(=O)=O)c(F)c1 (stereo not drawn)	8.23	–
COc1cccc(COc2nc(C(C)(C)C)ccc2CNC(=O)C(C)c2ccc(NS(C)(=O)=O)c(F)c2)c1 (stereo not drawn)	8.22	–
CC(C(=O)NCc1ccc(C(C)(C)C)nc1SCC(F)(F)F)c1ccc(NS(C)(=O)=O)c(F)c1 (stereo not drawn)	8.39	–

SMILES	pKi [1]	other results
CC(C(=O)NCc1ccc(C(C)(C)C)cc1N1CCCCCC1)c1ccc(NS(C)(=O)=O)c(F)c1 (stereo not drawn)	8.21	–
C[C@@H](C(=O)NCc1ccc(C(C)(C)C)cc1SC1CCCCC1)c1ccc(NS(C)(=O)=O)c(F)c1	7.05	–
CCCCCCOc1cc(C(C)(C)C)ccc1CNC(=O)C(C)c1ccc(NS(C)(=O)=O)c(F)c1 (stereo not drawn)	9.30	–
CC(C(=O)NCc1ccc(C(C)(C)C)nc1N1CCCCC1)c1ccc(NS(C)(=O)=O)c(F)c1 (stereo not drawn)	8.96	–
CC(C(=O)NCc1ccc(C(C)(C)C)nc1SC1CCCCC1)c1ccc(NS(C)(=O)=O)c(F)c1 (stereo not drawn)	8.07	–
C[C@H](C(=O)NCc1ccc(C(C)(C)C)cc1SC1CCCCC1)c1ccc(NS(C)(=O)=O)c(F)c1	8.22	Activity (Mus musculus [2]): Dose-dependent effect; MPE (Mus musculus [3]): 83%
CCCCN(C)c1nc(C(C)(C)C)ccc1CNC(=O)C(C)c1ccc(NS(C)(=O)=O)c(F)c1 (stereo not drawn)	8.92	–
C[C@H](C(=O)NCc1ccc(C(C)(C)C)nc1SC1CCCCC1)c1ccc(NS(C)(=O)=O)c(F)c1	8.47	MPE (Mus musculus [4]): 50%; MPE (Mus musculus [5]): 15%; Activity (Mus musculus [3]): Active; MPE (Mus musculus [6]): 46%
CC1CCN(c2cc(C(C)(C)C)ccc2CNC(=O)C(C)c2ccc(NS(C)(=O)=O)c(F)c2)CC1 (stereo not drawn)	9.15	–
CC(C(=O)NCc1ccc(C(C)(C)C)cc1N1CCCCC1)c1ccc(NS(C)(=O)=O)c(F)c1 (stereo not drawn)	8.72	–
CCCCCc1nc(C(C)(C)C)ccc1CNC(=O)C(C)c1ccc(NS(C)(=O)=O)c(F)c1 (stereo not drawn)	8.72	–
CCCOc1cc(C(C)(C)C)ccc1CNC(=O)C(C)c1ccc(NS(C)(=O)=O)c(F)c1 (stereo not drawn)	8.36	–
CCC1CCN(c2nc(C(C)(C)C)ccc2CNC(=O)C(C)c2ccc(NS(C)(=O)=O)c(F)c2)CC1 (stereo not drawn)	10.00	–
CCCCCCSc1nc(C(C)(C)C)ccc1CNC(=O)C(C)c1ccc(NS(C)(=O)=O)c(F)c1 (stereo not drawn)	8.82	–
CC(C(=O)NCc1ccc(C(C)(C)C)nc1SCc1ccccc1Cl)c1ccc(NS(C)(=O)=O)c(F)c1 (stereo not drawn)	8.42	–
COc1ccc(CSc2nc(C(C)(C)C)ccc2CNC(=O)C(C)c2ccc(NS(C)(=O)=O)c(F)c2)cc1 (stereo not drawn)	8.46	–
CC(C(=O)NCc1ccc(C(C)(C)C)nc1-c1ccc(F)cc1)c1ccc(NS(C)(=O)=O)c(F)c1 (stereo not drawn)	9.52	–
CCCCCc1cc(C(C)(C)C)ccc1CNC(=O)C(C)c1ccc(NS(C)(=O)=O)c(F)c1 (stereo not drawn)	8.55	–
CCCCSc1cc(C(C)(C)C)ccc1CNC(=O)C(C)c1ccc(NS(C)(=O)=O)c(F)c1 (stereo not drawn)	8.17	–
CC(C(=O)NCc1ccc(C(C)(C)C)cc1N1CCN(c2ccccc2)CC1)c1ccc(NS(C)(=O)=O)c(F)c1 (stereo not drawn)	9.10	–
CCCCSc1nc(C(C)(C)C)ccc1CNC(=O)C(C)c1ccc(NS(C)(=O)=O)c(F)c1 (stereo not drawn)	8.49	–
